Assay results reported in paper PMC5354814, “In silico and in vitro drug screening identifies new therapeutic approaches for Ewing sarcoma” (Oncotarget, 2016).
Where two headings read alike, the source gives them in different places.

Tests used:
Assay in all cases: In vitro high-throughput screen of FDA-approved drug library (CellTiter-Glo)
Type in all cases: cell-based
A673 = settings: for inhibition at 1 µM: Homo sapiens, read-out: % Inhibition A673
Experimental: (§1) We screened, in parallel to the three computational approaches, an FDA-approved drug library containing 2,316 drugs (1,536 unique chemical entities). […] The drug screening study protocol employed is summarized in Supplementary Table S1.
(§2) Cells were grown to 80–90% confluence, harvested and aliquoted into 384-well plates (black μClear microplates, Greiner bio-one, Germany) at concentrations of 750–1,500 cells per well in a total volume of 25 μl/well using a Matrix Wellmate (Thermo Scientific). Cells were cultured for 72 hours in a 5% CO2 atmosphere at 37°C. Aliquots of 25 μl CellTiter-Glo® Reagent (Promega) were added directly to each well, the plates were incubated at room temperature for 20 min and the luminescence signal was measured according to the manufacturer's protocol. The measurements were made using Infinite® M200 Pro plate reader (Tecan, Switzerland). […] Data were normalized to percentage inhibition. […]
(§3) (A) Color scale for drug inhibition values. […]

RD-ES = settings: for inhibition at 1 µM: RD-ES, read-out: % Inhibition RD-ES
Experimental: as §1, §2, §3

SK-ES-1 = settings: for inhibition at 1 µM: Homo sapiens, read-out: % Inhibition SK-ES-1
Experimental: as §1, §2, §3

Hs 919.T. = settings: for inhibition at 1 µM: read-out: % Inhibition Hs 919.T.
Experimental: as §1, §2, §3

[1] = SK-ES1, 1 μmol/L drug, 72 hours
[2] = 1 μmol/L drug, 72 hours, control cell line

Row | SMILES | inhibition at 1 µM (A673; A673, 1 μmol/L drug, 72 hours) | inhibition at 1 µM (RD-ES; 1 μmol/L drug, 72 hours) | inhibition at 1 µM (SK-ES-1; [1]) | inhibition at 1 µM (Hs 919.T.; [2]) | other results
1 | CN(Cc1cnc2nc(N)nc(N)c2n1)c1ccc(C(=O)N[C@@H](CCC(=O)O)C(=O)O)cc1 (racemic) [Methotrexate/Amethopterin (R,S), Methotrexate] | 89% | 82% | < 50% | < 50% | –
2 | COc1cc2c3cc1Oc1cc(ccc1O)C[C@@H]1c4c(cc(OC)c(O)c4Oc4ccc(cc4)C[C@@H]3N(C)CC2)CC[N+]1(C)C.Cl.O.O.O.O.O.[Cl-] [(+)-Tubocurarine chloride] | – | – | – | – | % Inhibition A673 (A673; 1 μmol/L drug, 72 hours): < 50%; % Inhibition RD-ES (RD-ES; 1 μmol/L drug, 72 hours): 51%; % Inhibition SK-ES-1 (SK-ES-1; 1 μmol/L drug, 72 hours): < 50%; % Inhibition Hs 919.T. (Hs 919.T.; [2]): < 50%
3 | CCCCC/C=C\C/C=C\C/C=C\C/C=C\CCCC(=O)Nc1ccc(O)cc1 [AM 404] | – | – | – | – | % Inhibition A673 (A673; 1 μmol/L drug, 72 hours): 65%; % Inhibition RD-ES (RD-ES; 1 μmol/L drug, 72 hours): < 50%; % Inhibition SK-ES-1 (SK-ES-1; 1 μmol/L drug, 72 hours): < 50%; % Inhibition Hs 919.T. (Hs 919.T.; [2]): < 50%
4 | CCCSc1ccc2nc(NC(=O)OC)[nH]c2c1 [Albendazole] | – | – | – | – | inhibition at 1 µM (A673; A673, 72 h): 89%; inhibition at 1 µM (RD-ES; 72 h): 93%; inhibition at 1 µM (SK-ES-1; SK-ES1, 72 h): 93%; inhibition at 1 µM (Hs 919.T.; 72 h): < 50%
5 | CCC(C)(C)c1ccc(CC(C)CN2C[C@@H](C)O[C@@H](C)C2)cc1 (stereo partly shown) [Amorolfine] | 56% | < 50% | < 50% | < 50% | –
6 | CCCCCC[C@H]1C(=O)O[C@H](C)[C@H](NC(=O)c2cccc(NC=O)c2O)C(=O)O[C@@H](C)[C@@H]1OC(=O)CC(C)C [Antimycin A] | < 50% | 69% | < 50% | < 50% | –
7 | C=C1[C@@H]2CC[C@H]3[C@]4(C)C[C@H](O[C@@H]5O[C@H](CO)[C@@H](OS(=O)(=O)[O-])[C@H](OS(=O)(=O)[O-])[C@H]5OC(=O)CC(C)C)C[C@@H](C(=O)O)[C@H]4CC[C@]3(C2)[C@H]1O.[K+].[K+] [Atractyloside potassium salt] | – | – | – | – | % Inhibition A673 (A673; 1 μmol/L drug, 72 hours): 99%; % Inhibition RD-ES (RD-ES; 1 μmol/L drug, 72 hours): 98%; % Inhibition SK-ES-1 (SK-ES-1; 1 μmol/L drug, 72 hours): 99%; % Inhibition Hs 919.T. (Hs 919.T.; [2]): < 50%
8 | Nc1nc(O)c2[nH]nnc2n1 [Azaguanine-8] | – | – | – | – | % Inhibition A673 (A673; 1 μmol/L drug, 72 hours): 83%; % Inhibition RD-ES (RD-ES; 1 μmol/L drug, 72 hours): < 50%; % Inhibition SK-ES-1 (SK-ES-1; 1 μmol/L drug, 72 hours): < 50%; % Inhibition Hs 919.T. (Hs 919.T.; [2]): < 50%
9 | Cn1cnc([N+](=O)[O-])c1Sc1ncnc2nc[nH]c12 [Azathioprine] | < 50% | < 50% | 52% | < 50% | –
10 | CC[C@@]1(O)C(=O)OCc2c1cc1n(c2=O)Cc2cc3ccccc3nc2-1 [Camptothecine (S,+)] | – | – | – | – | % Inhibition A673 (A673; 1 μmol/L drug, 72 hours): 99%; % Inhibition RD-ES (RD-ES; 1 μmol/L drug, 72 hours): 97%; % Inhibition SK-ES-1 (SK-ES-1; 1 μmol/L drug, 72 hours): 96%; % Inhibition Hs 919.T. (Hs 919.T.; [2]): < 50%
11 | Nc1nc(Cl)nc2c1ncn2[C@H]1C[C@H](O)[C@@H](CO)O1 [Cladribine] | 87% | 99% | 89% | < 50% | –
12 | Nc1nc(Cl)nc2c1ncn2[C@@H]1O[C@H](CO)[C@@H](O)[C@@H]1F [Clofarabine] | 93% | 99% | 98% | < 50% | –
13 | N=c1ccn2c(n1)O[C@H]1[C@H](O)[C@@H](CO)O[C@H]12 [Cyclocytidine] | 86% | 83% | 98% | < 50% | –
14 | C[C@@H]1C[C@@H]([C@H](O)CC2CC(=O)NC(=O)C2)C(=O)[C@@H](C)C1 [Cycloheximide] | 77% | 74% | 81% | < 50% | –
15 | Nc1ccn([C@@H]2O[C@H](CO)[C@@H](O)[C@@H]2O)c(=O)n1 [Cytosine β-D-arabinofuranoside] | – | – | – | – | % Inhibition A673 (A673; 1 μmol/L drug, 72 hours): 84%; % Inhibition RD-ES (RD-ES; 1 μmol/L drug, 72 hours): 93%; % Inhibition SK-ES-1 (SK-ES-1; 1 μmol/L drug, 72 hours): 98%; % Inhibition Hs 919.T. (Hs 919.T.; [2]): < 50%
16 | CCN(CC)C(=S)SSC(=S)N(CC)CC [Disulfiram] | 99% | 96% | 95% | < 50% | –

Row | SMILES | inhibition at 1 µM (A673; A673, 1 μmol/L drug, 72 hours) | inhibition at 1 µM (RD-ES; 1 μmol/L drug, 72 hours) | inhibition at 1 µM (SK-ES-1; [1]) | inhibition at 1 µM (Hs 919.T.; [2]) | other results
17 | O=c1c2ccccc2[se]n1-c1ccccc1 [Ebselen] | 93% | 95% | 96% | < 50% | –
18 | C[C@]12CC[C@@H]3c4ccc(O)cc4CC[C@H]3[C@@H]1CC[C@@H]2O [Estradiol] | 65% | < 50% | < 50% | < 50% | –
19 | COc1cc([C@@H]2c3cc4c(cc3[C@@H](O[C@@H]3O[C@@H]5CO[C@@H](C)O[C@H]5[C@H](O)[C@H]3O)[C@H]3COC(=O)[C@H]23)OCO4)cc(OC)c1O [Etoposide] | < 50% | 84% | 84% | < 50% | –
20 | COC(=O)Nc1nc2ccc(Sc3ccccc3)cc2[nH]1 [Fenbendazole] | 75% | 86% | 78% | < 50% | –
21 | O=c1[nH]c(=O)n([C@H]2C[C@H](O)[C@@H](CO)O2)cc1F [Floxuridine] | 68% | 92% | 56% | < 50% | –
22 | COC(=O)Nc1nc2cc(C(=O)c3ccc(F)cc3)ccc2[nH]1 [Flubendazole] | 77% | 86% | 86% | < 50% | –
23 | CCc1c2c(nc3ccc(OC(=O)N4CCC(N5CCCCC5)CC4)cc13)-c1cc3c(c(=O)n1C2)COC(=O)[C@]3(O)CC.Cl [Irinotecan Hydrochloride] | – | – | – | – | % Inhibition A673 (A673; 1 μmol/L drug, 72 hours): 83%; % Inhibition RD-ES (RD-ES; 1 μmol/L drug, 72 hours): 99%; % Inhibition SK-ES-1 (SK-ES-1; 1 μmol/L drug, 72 hours): 98%; % Inhibition Hs 919.T. (Hs 919.T.; [2]): < 50%
24 | NNC(=O)c1ccncc1 [Isoniazid] | 56% | < 50% | < 50% | < 50% | –
25 | CN(Cc1cnc2nc(N)nc(N)c2n1)c1ccc(C(=O)N[C@@H](CCC(=O)O)C(=O)O)cc1 [L-Glutamic acid, N-[4-[[(2,4-diamino-6-pteridinyl)methyl]methylamino]benzoyl]] | – | – | – | – | % Inhibition A673 (A673; 1 μmol/L drug, 72 hours): 85%; % Inhibition RD-ES (RD-ES; 1 μmol/L drug, 72 hours): 77%; % Inhibition SK-ES-1 (SK-ES-1; 1 μmol/L drug, 72 hours): 57%; % Inhibition Hs 919.T. (Hs 919.T.; [2]): < 50%
26 | COC(=O)Nc1nc2ccc(C(=O)c3ccccc3)cc2[nH]1 [Mebendazole] | 94% | 95% | 96% | < 50% | –
27 | N[C@@H](Cc1ccc(N(CCCl)CCCl)cc1)C(=O)O [Melphalan] | < 50% | 95% | 91% | < 50% | –
28 | S=c1[nH]cnc2nc[nH]c12 [Mercaptopurine] | < 50% | < 50% | 57% | < 50% | –
29 | C[C@]12CCC(=O)C=C1CC[C@@H]1[C@@H]2CC[C@@]2(C)[C@H]1CC[C@]2(C)O [Methyltestosterone] | < 50% | 73% | < 50% | < 50% | –
30 | COc1c(C)c2c(c(O)c1C/C=C(\C)CCC(=O)O)C(=O)OC2 [Mycophenolic Acid] | < 50% | 52% | < 50% | < 50% | –
31 | NC(=O)N/N=C/c1ccc([N+](=O)[O-])o1 [Nitrofural/Nitrofurazone, Nitrofurazone] | 52% | 52% | 72% | < 50% | –
